Measured values as given in PubChem BioAssay AID256 (DTP/NCI, 2004).
Toxic doses and inconclusive results are not listed.

Tested on: CD2F1 mice, L1210 leukemia ip, survival T/C
Experiment: NCI In Vivo Anticancer Drug Screen. Data for tumor model L1210 Leukemia (intraperitoneal) in CD2F1 (CDF1) mice
Conditions: higher = longer survival
How it was run: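 Compound-dosed mice with transplantable tumor versus matched vehicle controls; endpoint ratio T/C reported.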

[1] = endpoint: mean survival time, dose: 100.0 mg/kg/injection, schedule: Q04DX003 (ip), vehicle: saline with Tween-80
[2] = endpoint: mean survival time, dose: 25.0 mg/kg/injection, schedule: Q01DX009 (ip), vehicle: saline with Tween-80
[3] = endpoint: mean survival time, dose: 25.0 mg/kg/injection, schedule: Q04DX002 (ip), vehicle: other

Structure (SMILES): CCOC(=O)CC(O)CC (configuration not stated)
- T/C (endpoint: mean survival time, dose: 100.0 mg/kg/injection, schedule: Q04DX002 (ip), vehicle: saline): 95 % of control
- T/C (endpoint: mean survival time, dose: 200.0 mg/kg/injection, schedule: Q04DX002 (ip), vehicle: saline): 95 % of control
- T/C (endpoint: mean survival time, dose: 400.0 mg/kg/injection, schedule: Q04DX002 (ip), vehicle: saline): 95 % of control

Structure (SMILES): CC(C)N(C(C)C)S(=O)(=O)c1ccccc1C(O)(c1ccccc1)c1ccccc1
- T/C (endpoint: mean survival time, dose: 100.0 mg/kg/injection, schedule: Q01DX009 (ip), vehicle: saline with Tween-80): 92 % of control
- T/C [1]: 94 % of control
- T/C (endpoint: mean survival time, dose: 200.0 mg/kg/injection, schedule: Q04DX003 (ip), vehicle: saline with Tween-80): 96 % of control
- T/C (endpoint: mean survival time, dose: 400.0 mg/kg/injection, schedule: Q04DX003 (ip), vehicle: saline with Tween-80): 89 % of control

Structure (SMILES): COc1ccc(-n2cnc3c(cnn3C3OC(CO)C(O)C3O)c2=O)cc1 (configuration not stated)
- T/C (endpoint: median survival time, dose: 12.5 mg/kg/injection, schedule: Q01DX005 (ip), vehicle: saline): 105 % of control
- T/C (endpoint: median survival time, dose: 25.0 mg/kg/injection, schedule: Q01DX005 (ip), vehicle: saline): 102 % of control
- T/C (endpoint: median survival time, dose: 50.0 mg/kg/injection, schedule: Q01DX005 (ip), vehicle: saline): 102 % of control
- T/C (endpoint: median survival time, dose: 100.0 mg/kg/injection, schedule: Q01DX005 (ip), vehicle: saline): 105 % of control
- T/C (endpoint: median survival time, dose: 200.0 mg/kg/injection, schedule: Q01DX005 (ip), vehicle: saline): 106 % of control

Structure (SMILES): COC1CCCC[CH]1[Hg][Br] (configuration not stated)
- T/C (endpoint: mean survival time, dose: 3.13 mg/kg/injection, schedule: Q01DX009 (ip), vehicle: saline with Tween-80): 102 % of control

Structure (SMILES): CCCCCCCCCCCCCCCC(=O)OCC1OC(n2ccc(N)nc2=O)C(O)C1O (configuration not stated)
- T/C (endpoint: mean survival time, dose: 6.25 mg/kg/injection, schedule: Q01DX008 (ip), vehicle: saline): 320 % of control
- T/C (endpoint: mean survival time, dose: 12.5 mg/kg/injection, schedule: Q01DX008 (ip), vehicle: saline): 377 % of control
- T/C (endpoint: mean survival time, dose: 16.0 mg/kg/injection, schedule: Q01DX008 (oral), vehicle: saline): 117 % of control
- T/C (endpoint: mean survival time, dose: 16.0 mg/kg/injection, schedule: Q03HX024 (oral), vehicle: saline with Tween-80): 202 % of control
- T/C (endpoint: mean survival time, dose: 20.0 mg/kg/injection, schedule: Q01DX009 (ip), vehicle: saline with Tween-80): 479 % of control
- T/C (endpoint: mean survival time, dose: 25.0 mg/kg/injection, schedule: Q01DX001 (ip), vehicle: saline with Tween-80): 150 % of control
- T/C (endpoint: mean survival time, dose: 25.0 mg/kg/injection, schedule: Q01DX008 (ip), vehicle: saline): 491 % of control
- T/C [2]: 484 % of control
- T/C (endpoint: mean survival time, dose: 30.0 mg/kg/injection, schedule: Q01DX009 (ip), vehicle: saline with Tween-80): 184 % of control
- T/C (endpoint: mean survival time, dose: 32.0 mg/kg/injection, schedule: Q03HX024 (oral), vehicle: saline with Tween-80): 235 % of control
- T/C (endpoint: mean survival time, dose: 50.0 mg/kg/injection, schedule: Q01DX001 (ip), vehicle: saline with Tween-80): 192 % of control
- T/C (endpoint: mean survival time, dose: 50.0 mg/kg/injection, schedule: Q01DX008 (ip), vehicle: saline): 285 % of control
- T/C (endpoint: mean survival time, dose: 64.0 mg/kg/injection, schedule: Q03HX024 (oral), vehicle: saline with Tween-80): 265 % of control
- T/C (endpoint: mean survival time, dose: 100.0 mg/kg/injection, schedule: Q01DX001 (ip), vehicle: saline with Tween-80): 312 % of control
- T/C (endpoint: mean survival time, dose: 125.0 mg/kg/injection, schedule: Q01DX001 (ip), vehicle: saline with Tween-80): 580 % of control
- T/C (endpoint: mean survival time, dose: 128.0 mg/kg/injection, schedule: Q01DX001 (oral), vehicle: saline with Tween-80): 102 % of control
- T/C (endpoint: mean survival time, dose: 128.0 mg/kg/injection, schedule: Q01DX008 (oral), vehicle: saline): 151 % of control
- T/C (endpoint: mean survival time, dose: 128.0 mg/kg/injection, schedule: Q03HX024 (oral), vehicle: saline with Tween-80): 295 % of control
- T/C (endpoint: mean survival time, dose: 128.0 mg/kg/injection, schedule: Q04DX003 (oral), vehicle: saline): 119 % of control
- T/C (endpoint: mean survival time, dose: 150.0 mg/kg/injection, schedule: Q01DX001 (ip), vehicle: saline with Tween-80): 608 % of control
- T/C (endpoint: mean survival time, dose: 200.0 mg/kg/injection, schedule: Q01DX001 (ip), vehicle: saline with Tween-80): 612 % of control
- T/C (endpoint: mean survival time, dose: 250.0 mg/kg/injection, schedule: Q01DX001 (ip), vehicle: saline with Tween-80): 214 % of control
- T/C (endpoint: mean survival time, dose: 256.0 mg/kg/injection, schedule: Q01DX001 (oral), vehicle: saline with Tween-80): 101 % of control
- T/C (endpoint: mean survival time, dose: 300.0 mg/kg/injection, schedule: Q01DX001 (ip), vehicle: saline with Tween-80): 83 % of control
- T/C (endpoint: mean survival time, dose: 512.0 mg/kg/injection, schedule: Q01DX001 (oral), vehicle: saline with Tween-80): 108 % of control
- T/C (endpoint: mean survival time, dose: 512.0 mg/kg/injection, schedule: Q01DX009 (oral), vehicle: saline): 169 % of control
- T/C (endpoint: mean survival time, dose: 1024.0 mg/kg/injection, schedule: Q01DX001 (oral), vehicle: saline with Tween-80): 109 % of control
- T/C (endpoint: mean survival time, dose: 1024.0 mg/kg/injection, schedule: Q01DX009 (oral), vehicle: saline): 177 % of control

Structure (SMILES): CC(C)(C)c1cc(C(C)(C)C)nc([N+](C)(C)C)c1
- T/C (endpoint: mean survival time, dose: 12.5 mg/kg/injection, schedule: Q04DX002 (ip), vehicle: saline with Tween-80): 108 % of control
- T/C (endpoint: mean survival time, dose: 25.0 mg/kg/injection, schedule: Q04DX002 (ip), vehicle: saline with Tween-80): 101 % of control
- T/C (endpoint: mean survival time, dose: 50.0 mg/kg/injection, schedule: Q04DX002 (ip), vehicle: saline with Tween-80): 101 % of control

Structure (SMILES): O=C(NCCF)NC1CCSc2ccccc21 (configuration not stated)
- T/C (endpoint: mean survival time, dose: 75.0 mg/kg/injection, schedule: Q01DX001 (ip), vehicle: other): 101 % of control
- T/C (endpoint: mean survival time, dose: 150.0 mg/kg/injection, schedule: Q01DX001 (ip), vehicle: other): 103 % of control

Structure (SMILES): CC(=O)Nc1ncc2ccccc2c1-c1ccc(NC(=O)CN(CCO)CCO)cc1
- T/C (endpoint: mean survival time, dose: 25.0 mg/kg/injection, schedule: Q04DX003 (ip), vehicle: other): 104 % of control
- T/C (endpoint: mean survival time, dose: 50.0 mg/kg/injection, schedule: Q04DX003 (ip), vehicle: other): 108 % of control
- T/C (endpoint: mean survival time, dose: 100.0 mg/kg/injection, schedule: Q04DX003 (ip), vehicle: other): 100 % of control
- T/C (endpoint: mean survival time, dose: 200.0 mg/kg/injection, schedule: Q04DX003 (ip), vehicle: other): 96 % of control
- T/C (endpoint: mean survival time, dose: 400.0 mg/kg/injection, schedule: Q04DX003 (ip), vehicle: other): 104 % of control

Structure (SMILES): Cc1c([O-])[n+](Cc2ccccc2)nn1C
- T/C (endpoint: mean survival time, dose: 12.5 mg/kg/injection, schedule: Q01DX009 (ip), vehicle: water): 97 % of control
- T/C (endpoint: mean survival time, dose: 25.0 mg/kg/injection, schedule: Q01DX009 (ip), vehicle: water): 98 % of control
- T/C (endpoint: mean survival time, dose: 50.0 mg/kg/injection, schedule: Q01DX009 (ip), vehicle: water): 95 % of control
- T/C (endpoint: mean survival time, dose: 100.0 mg/kg/injection, schedule: Q01DX009 (ip), vehicle: water): 97 % of control
- T/C (endpoint: mean survival time, dose: 200.0 mg/kg/injection, schedule: Q01DX009 (ip), vehicle: water): 93 % of control

Structure (SMILES): O=C(OCC1OC(n2nc(SCc3ccccc3)c(=O)[nH]c2=O)C(OC(=O)c2ccccc2)C1OC(=O)c1ccccc1)c1ccccc1 (configuration not stated)
- T/C (endpoint: mean survival time, dose: 12.5 mg/kg/injection, schedule: Q01DX005 (ip), vehicle: distilled water + Tween-80): 93 % of control
- T/C (endpoint: mean survival time, dose: 25.0 mg/kg/injection, schedule: Q01DX005 (ip), vehicle: distilled water + Tween-80): 95 % of control
- T/C (endpoint: mean survival time, dose: 50.0 mg/kg/injection, schedule: Q01DX005 (ip), vehicle: distilled water + Tween-80): 97 % of control
- T/C (endpoint: mean survival time, dose: 100.0 mg/kg/injection, schedule: Q01DX005 (ip), vehicle: distilled water + Tween-80): 88 % of control

Structure (SMILES): COc1cc(OC)c(OC)cc1/C=C\c1ccc2ccccc2[n+]1C
- T/C (endpoint: mean survival time, dose: 12.5 mg/kg/injection, schedule: Q01DX009 (ip), vehicle: saline with Tween-80): 100 % of control
- T/C [2]: 91 % of control
- T/C [1]: 104 % of control

Structure (SMILES): C=CCSc1ncnc2c1cnn2C1OC(CO)C(O)C1O (configuration not stated)
- T/C (endpoint: mean survival time, dose: 12.5 mg/kg/injection, schedule: Q01DX005 (ip), vehicle: water): 102 % of control
- T/C (endpoint: mean survival time, dose: 25.0 mg/kg/injection, schedule: Q01DX005 (ip), vehicle: water): 98 % of control
- T/C (endpoint: mean survival time, dose: 50.0 mg/kg/injection, schedule: Q01DX005 (ip), vehicle: water): 98 % of control
- T/C (endpoint: mean survival time, dose: 100.0 mg/kg/injection, schedule: Q01DX005 (ip), vehicle: water): 102 % of control

Structure (SMILES): O=C(O)C1CCC(NCc2ccccc2)CC1 (configuration not stated)
- T/C (endpoint: mean survival time, dose: 100.0 mg/kg/injection, schedule: Q01DX009 (ip), vehicle: Klucel (hydroxypropylcellulose) (HPC)): 100 % of control
- T/C (endpoint: mean survival time, dose: 200.0 mg/kg/injection, schedule: Q01DX009 (ip), vehicle: Klucel (hydroxypropylcellulose) (HPC)): 100 % of control
- T/C (endpoint: mean survival time, dose: 400.0 mg/kg/injection, schedule: Q01DX009 (ip), vehicle: Klucel (hydroxypropylcellulose) (HPC)): 111 % of control

Structure (SMILES): CCOc1ccccc1N1C(=O)CSC1=S
- T/C [3]: 93 % of control
- T/C (endpoint: mean survival time, dose: 50.0 mg/kg/injection, schedule: Q04DX002 (ip), vehicle: other): 93 % of control
- T/C (endpoint: mean survival time, dose: 100.0 mg/kg/injection, schedule: Q04DX002 (ip), vehicle: other): 89 % of control
- T/C (endpoint: mean survival time, dose: 200.0 mg/kg/injection, schedule: Q04DX002 (ip), vehicle: other): 101 % of control

Structure (SMILES): COc1ccc(S(=O)[O-])cc1.C[c-]1[c-][c-][c-][c-]1.[C-]#[O+].[C-]#[O+].[Fe+6]
- T/C (endpoint: mean survival time, dose: 6.25 mg/kg/injection, schedule: Q04DX002 (ip), vehicle: other): 95 % of control
- T/C (endpoint: mean survival time, dose: 12.5 mg/kg/injection, schedule: Q04DX002 (ip), vehicle: other): 114 % of control
- T/C [3]: 100 % of control
